This passage reports IC50 results from PubChem BioAssay AID849 (SRMLSC, 2007).

Activity calls are given as the source filed them. No rule for the calls is given here.

The experiment has as its system Saccharomyces cerevisiae lifespan shortening, growth inhibition. The experiment can be described thus: Saccharomyces cerevisiae growth inhibition potency – dose response (AID 849).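 Also: yeast growth read as optical density after two days at 30 degrees C.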

As for `OC(COc1ccc2ccccc2c1Br)Cn1cnc(-c2ccccc2)c1` (stereo unspecified), the IC50 was 49.3 µM. Consider `CCCn1c(C(C)NC(C)=O)nc2ccccc21` (stereo unspecified), for which the IC50 is > 100 µM (inactive).

Turning to `COc1ccc(N/N=C(\C#N)C(N)=O)cc1`, the IC50 was > 100 µM (inactive).

With `CCCC1COC(Cn2cncn2)(c2ccc(Cl)cc2Cl)O1` (stereo unspecified), the IC50 was 0.274 µM. For the compound `O=C1NC(=S)N(c2ccccc2F)C(=O)/C1=C\c1cccs1`, the IC50 was 18.6 µM. Then `c1ccc2nc3ccccc3nc2c1`, with 16.8 µM; and `CC(=O)NC1C(=O)N=C(SCC(=O)NC2CCCCC2)NC1=O` (stereo unspecified), with > 100 µM (inactive). On to `Cc1ccccc1NC(=S)c1nc2ccccc2[nH]1`, for which the IC50 was 29.5 µM. The figure for `CC(C)(C)C(=O)O/N=C1/C(=O)N(c2ccccc2)c2ccccc21` is 30.6 µM.

Take `Oc1c(Br)cc(Cl)cc1C=Nc1ccccc1Br`: the IC50 is 27.1 µM. The figure for `O=C(Oc1ccc(Cl)c2cccnc12)c1ccco1` is 14.6 µM; for `Cc1ccc(CNC(=O)c2ccc(Cn3nc(C)c(Cl)c3C)o2)cc1` it is 12.4 µM.

With `CCOC(=O)C1CCCCN1C(=O)CCc1c(C)nc2cc(-c3ccccc3)nn2c1C` (stereo unspecified), the IC50 is > 100 µM (inactive).

Take `C/C(O)=c1/ccc2cccc3nc(C)nc1c23`: the IC50 is 17.6 µM. The figure for `S=C1SCN(Cc2ccccn2)CN1Cc1ccco1` is 21.3 µM. Then `O=C1OCC(CO)(CO)N=C1NNc1ccc(Cl)c(Cl)c1`, with 2.89 µM; and `Brc1ccccc1-c1nnc(CSc2nnc3sc4ccccc4n23)o1`, with > 100 µM (inactive); and `c1ccc(-c2nnc(-c3ccccn3)nc2NC2CCCCC2)cc1`, with 12.5 µM.

In the case of `NNC(=O)c1cccc(COc2ccc3c(c2)CCC3)c1`, the IC50 was 17.3 µM. Regarding `COc1ccc(C(=O)C(C)(C)NO)cc1`, the IC50 is 33.7 µM. Then `O=C1CC(N2CCN(c3nc4ccccc4s3)CC2)C(=O)N1Cc1cccs1` (stereo unspecified), with > 100 µM (inactive). On to `c1ccc(-c2ccc(OCCCn3cncn3)cc2)cc1`, for which the IC50 was > 100 µM (inactive). Turning to `O=[N+]([O-])c1ccc(N/N=C2/CCCCC2c2ccccn2)cc1` (stereo unspecified), the IC50 is 5.86 µM.

Take `O=C(NNC(=S)NC(=O)C12CC3CC(CC(C3)C1)C2)c1ccncc1`: the IC50 was 19.6 µM. Then `Cc1ccc(-n2c(C)cc(C(=O)COC(=O)c3ccc[nH]c3=O)c2C)cc1`, with 18.1 µM; and `O=C(O)Cc1ccc2sc(-c3ccccc3)nc2c1`, with > 100 µM (inactive); and `CCCc1ccc(Oc2cn[nH]c2-c2ccc(O)c(C)c2O)cc1`, with 6.65 µM. Then `Cc1nc2ccccc2c2c1C(=O)N(C)C2=O`, with 10.9 µM; and `c1ccc(-c2nc3c(ccc4ccccc43)[nH]2)nc1`, with 30.7 µM; and `CSC1=NSC2=NC(=O)/C(=C/c3coc4ccccc4c3=O)C(=N)N12`, with 44.1 µM. The figure for `Cc1[nH]n(-c2ccccc2)c(=O)c1/C=N/Nc1nncc(-c2ccccc2)n1` is 19.3 µM; for `O=Nc1c(O)n(Cc2ccc(Cl)c(Cl)c2)c2ccccc12` it is > 100 µM (inactive); for `Cn1c(=O)c2nc(-c3ccccc3)oc2c2ccccc21` it is > 100 µM (inactive). As for `Cc1cccc(OCCn2cc(/C=N/NC(=O)c3ccncc3)c3ccccc32)c1`, the IC50 is > 100 µM (inactive).

`COc1ccc2c(c1)c1nnc(SC)nc1n2C`: the IC50 was 44.1 µM.

Turning to `Cc1cccc(/C=C/C(=O)c2cc(Br)ccc(=O)c2O)c1`, the IC50 was 8.97 µM. The figure for `N#C/C(=C/c1cn(-c2ccccc2)nc1-c1cccc(OCc2ccc(F)cc2)c1)C(=O)NCCCn1ccnc1` is > 100 µM (inactive). Then `COc1ccc2c(C)nc(Nc3nc(C)c(C)c(=O)[nH]3)nc2c1`, with 15 µM; and `CN1CCN(C2=Cc3cc(Cl)ccc3Sc3cc(F)ccc32)CC1`, with 15.2 µM. The figure for `COc1ccc(/C=C/C(=O)c2cc(Br)ccc(=O)c2O)cc1` is 12.6 µM; for `Oc1cc(-c2ccccc2)c2ccccc2c1` it is 26 µM. Take `Cc1ccc(/C(N)=N/OC(=O)c2ccc(C)cc2Cl)cc1`: the IC50 is 14.8 µM. As to `CC1=C(C)/C(=N\OS(=O)(=O)c2ccccc2)C=CC1=O`, the IC50 was 30.3 µM.

Turning to `Cc1cccc(N=C2Sc3nc4c(C)c(C)ccc4cc3CN2CCN2CCOCC2)c1`, the IC50 was 44.7 µM.

In the case of `CC1Cc2ccccc2N1C(=O)CSC1=NCCS1` (stereo unspecified), the IC50 is > 100 µM (inactive).

Regarding `O=c1oc2ccccc2cc1-c1cn2cccnc2n1`, the IC50 was > 100 µM (inactive). On to `O=Cc1c(Sc2ccccc2)nc2ccccn2c1=O`, for which the IC50 was 29 µM. Then `CCCCCCCCC/C(=N\O)c1ccccn1`, with 4.51 µM.

On to `O=C1OCC(CO)(CO)N=C1NNc1ccccc1Cl`, for which the IC50 is 6.45 µM. Then `Cc1ccc(NC(=S)Nc2ccc(Cl)c(Cl)c2)c(OC(F)F)c1`, with 22.2 µM. With `Cc1ccc(N2NC(C)(c3cccs3)NC2=S)cc1` (stereo unspecified), the IC50 was > 100 µM (inactive). The figure for `c1ccc(-c2nc(-n3ccnc3)nc(-n3ccnc3)n2)cc1` is 34.3 µM; for `COC(=O)CSCc1nc2ccccc2[nH]c1=O` it is > 100 µM (inactive); for `C=CCc1c(C)c(C#N)c2nc3ccccc3n2c1NCCN(C)C` it is 44.5 µM. Then `COc1ccccc1NC(=O)Cc1noc(CSc2cccc[n+]2[O-])n1`, with 23.2 µM; and `Cc1ccc(-n2nnc3c(=O)n(CC(=O)N4CCC(C)CC4)cnc32)cc1`, with > 100 µM (inactive).

Turning to `CCOC(=O)c1c(N)sc(C(O)(C(F)(F)F)C(F)(F)F)c1-c1ccc(Cl)cc1`, the IC50 was > 100 µM (inactive). Then `COc1cc(-c2nc3ccc4ccccc4c3c3c2CCC3)ccc1O`, with > 100 µM (inactive); and `CCCc1ccc(Oc2c(-c3ccc(O)c(C)c3O)n[nH]c2C)cc1`, with 7.01 µM. With `c1ccc2c(c1)nnn1c3ccccc3nc21`, the IC50 was > 100 µM (inactive).

As for `CC1=C(C)CC2C(=O)N(c3cccc4ccccc34)C(=O)C2C1` (stereo unspecified), the IC50 was > 100 µM (inactive). Then `O=C1C=C(c2ccccc2)C(=O)N1Nc1ccccc1`, with 12 µM; and `CN(c1ccc(O)cc1)c1nc(-c2ccccc2)cs1`, with > 100 µM (inactive); and `COc1cc2c(cc1OC)CN(C(=O)CSc1nnc3scc(-c4ccccc4)n13)CC2`, with > 100 µM (inactive). Then `CCCCn1c(/N=C/c2c[nH]c3ccccc23)nc2ccccc21`, with > 100 µM (inactive). The figure for `CCCOC(=O)c1ccc(Oc2cn[nH]c2-c2ccc(OC)cc2O)cc1` is 26 µM; for `COc1cc(/C=C2\C(=O)ON=C2c2ccccc2)cc(OC)c1OC` it is 18.5 µM. `Nc1nonc1C(=O)NCCN=Cc1cc(Cc2ccccc2)cc(Br)c1O`: the IC50 is > 100 µM (inactive). For `CN1C(=O)c2cccc3c(Cl)ccc(c23)C1=O`, the IC50 was > 100 µM (inactive).

As for `CC(C)c1ccc2c(c1)C1(NN=C(c3ccccc3)S1)C(=O)N2` (stereo unspecified), the IC50 was 26.3 µM. Then `CCCn1c(CNc2ccccc2O)nc2ccccc21`, with > 100 µM (inactive); and `O=c1c2ccccc2nc2sc3ccccc3n12`, with 27.8 µM. `COC(=O)CSC1=NS(=O)(=O)c2ccccc21`: the IC50 was > 100 µM (inactive). `Fc1ccc(N/N=C2/CC(c3ccccc3)Oc3ccccc32)c(F)c1` (stereo unspecified): the IC50 was 27.7 µM. Then `O=C(O)c1cc(-c2ccc(/C=N/Nc3ccc(Cl)cc3)o2)ccc1Cl`, with 11.7 µM. On to `COc1ccc(-c2cc3nc(C)cc(N4CC(C)CC(C)C4)n3n2)cc1` (stereo unspecified), for which the IC50 was 42.2 µM. On to `Cc1cc(O)c(/C=N/Nc2ccccc2)c(=O)o1`, for which the IC50 is 25.2 µM. For `O=C(Nc1cccc(N=Cc2cc(Cl)cc(Br)c2O)c1)c1ccco1`, the IC50 is > 100 µM (inactive). The figure for `Cc1cc(C(=O)COC(=O)c2ccc[nH]c2=O)c(C)n1-c1ccc(Br)cc1` is > 100 µM (inactive); for `O=C1c2cccc3c(Cl)ccc(c23)C(=O)N1O` it is 21.7 µM; for `COc1ccc(Nc2cnn(-c3nc4ccccc4s3)c(=O)c2Cl)cc1` it is > 100 µM (inactive).

In the case of `O=C1ON=C(c2ccccc2)/C1=C/c1ccc(OS(=O)(=O)c2ccccc2)cc1`, the IC50 is 18.9 µM.

As to `COC(=O)c1ccc(C(=O)OC)c(NC(=O)CSc2cccc[n+]2[O-])c1`, the half-maximal inhibitory concentration (IC50) is 0.822 µM.

Take `CCC(C)N1CC23C=CC(O2)C(C(=O)OC)C3C1=O` (stereo unspecified): the IC50 is > 100 µM (inactive). Then `Clc1ccc(CSC(Cn2ccnc2)c2ccc(Cl)cc2Cl)cc1` (stereo unspecified), with 0.528 µM; and `Cn1c(SCC(=O)Nc2ccccc2)nc(O)cc1=O`, with 50.1 µM; and `O=C(c1ccccc1)c1ccc2nc(N3CCCCC3)c3nncn3c2c1`, with > 100 µM (inactive). The figure for `Cc1ccc(C(=O)CSC2=NC(N)=C(C#N)C3(CCCCC3)C2C(N)=O)cc1` (stereo unspecified) is > 100 µM (inactive); for `O=C(CSC1=NCCS1)N1CCN(c2ccc(Cl)cc2)CC1` it is > 100 µM (inactive). The figure for `O=C1c2ccccc2NC(c2ccc(-c3ccc(Br)cc3)o2)N1O` (stereo unspecified) is 25 µM. Regarding `Cc1nn2c3ccccc3nc2c2ccccc12`, the IC50 is 41.6 µM.

`Cc1csc(NC(=O)Cc2coc3cc(C)c(C(C)C)cc23)n1`: the IC50 was > 100 µM (inactive). Turning to `CC1=CC(=O)c2ccccc2C1=O`, the IC50 was 18.5 µM. Then `CCOc1cc(/C=N/Nc2ccccc2Cl)ccc1OCC(=O)O`, with 11.6 µM. Then `O=C(N/N=C\c1cccc([N+](=O)[O-])c1O)C1COc2ccccc2O1` (stereo unspecified), with 24.8 µM; and `CCOC(=O)CSc1nnc(CSc2nc(N)c3c(C)c(C)sc3n2)n1-c1ccccc1`, with > 100 µM (inactive).

`O=[N+]([O-])c1cc(CN2CCCC2)c2cccnc2c1O`: the IC50 was > 100 µM (inactive). In the case of `Cc1cccc(C(=O)Oc2csc(=S)n2C(=O)c2cccc(C)c2)c1`, the IC50 was > 100 µM (inactive). Turning to `CC(C)c1ccc(NC(=S)NCCc2c[nH]c3ccccc23)cc1`, the IC50 was > 100 µM (inactive). Then `Cc1ccc(O)c(C(=O)CC(=O)c2cccc(F)c2)c1`, with > 100 µM (inactive); and `Cc1cccc(-c2nnc3sc(-c4ccccc4C)nn23)c1`, with > 100 µM (inactive).
